Assay results taken from the supplement of paper PMC10307832.

Assays:
Test in all cases: relative viability (nuclei count vs DMSO), 5 days (fraction); higher = more cells survive
SK-LU-1 = system: SK-LU-1
Method in brief: (§1)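 A single step with final 0.05% Triton X-100, 1% formaldehyde and 1 ug/ml Hoechst fixed the cells and stained nuclei 5 days after treatment. Lung cancer cell lines in 1536-well plates had been treated by pin tool the day after seeding with one drug alone or a fixed anchor-drug dose plus five library-drug doses (not always all listed) in √10 steps, and nuclei were counted on 4× images. Relative viability is the ratio of nuclei in treated wells to nuclei in vehicle wells, taken as the median of duplicate plates.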

LXF-289 = system: LXF-289
Method in brief: as §1

NCI-H522 = system: NCI-H522
Method in brief: as §1

HCC-15 = system: HCC-15
Method in brief: as §1

NCI-H358 = system: NCI-H358
Method in brief: as §1

RERF-LC-KJ = system: RERF-LC-KJ
Method in brief: as §1

A-427 = system: A-427
Method in brief: as §1

PC-3 [JPC-3] = system: PC-3 [JPC-3]
Method in brief: as §1

NCI-H1734 = system: NCI-H1734
Method in brief: as §1

NCI-H1975 = system: NCI-H1975
Method in brief: as §1

HCC-78 = system: HCC-78
Method in brief: as §1

NCI-H647 = system: NCI-H647
Method in brief: as §1

LC-2-ad = system: LC-2-ad
Method in brief: as §1

SW 1573 = system: SW 1573
Method in brief: as §1

NCI-H2342 = system: NCI-H2342
Method in brief: as §1

NCI-H2347 = system: NCI-H2347
Method in brief: as §1

NCI-H2126 = system: NCI-H2126
Method in brief: as §1

HOP-62 = system: HOP-62
Method in brief: as §1

NCI-H1755 = system: NCI-H1755
Method in brief: as §1

NCI-H1915 = system: NCI-H1915
Method in brief: as §1

NCI-H1792 = system: NCI-H1792
Method in brief: as §1

## Cc1sc2c(c1C)C(c1ccc(Cl)cc1)=N[C@@H](CC(=O)OC(C)(C)C)c1nnc(C)n1-2 [JQ1] + Nc1ncn([C@H]2C[C@H](O)[C@@H](CO)O2)c(=O)n1 [Decitabine] (partner 2 µM)
SK-LU-1; first compound 0.04 µM
  relative viability: 0.614
SK-LU-1; first compound 0.1265 µM
  relative viability: 0.519
SK-LU-1; first compound 0.4 µM
  relative viability: 0.416
SK-LU-1; first compound 1.265 µM
  relative viability: 0.308
SK-LU-1; first compound 4 µM
  relative viability: 0.213
LXF-289; first compound 0.04 µM
  relative viability: 0.368
LXF-289; first compound 0.1265 µM
  relative viability: 0.401
LXF-289; first compound 0.4 µM
  relative viability: 0.344
LXF-289; first compound 1.265 µM
  relative viability: 0.226
LXF-289; first compound 4 µM
  relative viability: 0.222
NCI-H522; first compound 0.04 µM
  relative viability: 0.656
NCI-H522; first compound 0.1265 µM
  relative viability: 0.635
NCI-H522; first compound 0.4 µM
  relative viability: 0.661
NCI-H522; first compound 1.265 µM
  relative viability: 0.473
NCI-H522; first compound 4 µM
  relative viability: 0.501
HCC-15; first compound 0.04 µM
  relative viability: 0.617
HCC-15; first compound 0.1265 µM
  relative viability: 0.491
HCC-15; first compound 0.4 µM
  relative viability: 0.6
HCC-15; first compound 1.265 µM
  relative viability: 0.406
HCC-15; first compound 4 µM
  relative viability: 0.408
NCI-H358; first compound 0.04 µM
  relative viability: 0.212
NCI-H358; first compound 0.1265 µM
  relative viability: 0.227
NCI-H358; first compound 0.4 µM
  relative viability: 0.235
NCI-H358; first compound 1.265 µM
  relative viability: 0.188
NCI-H358; first compound 4 µM
  relative viability: 0.206
RERF-LC-KJ; first compound 0.04 µM
  relative viability: 0.648
RERF-LC-KJ; first compound 0.1265 µM
  relative viability: 0.532
RERF-LC-KJ; first compound 0.4 µM
  relative viability: 0.56
RERF-LC-KJ; first compound 1.265 µM
  relative viability: 0.333
RERF-LC-KJ; first compound 4 µM
  relative viability: 0.235
A-427; first compound 0.04 µM
  relative viability: 0.57
A-427; first compound 0.1265 µM
  relative viability: 0.506
A-427; first compound 0.4 µM
  relative viability: 0.591
A-427; first compound 1.265 µM
  relative viability: 0.495
A-427; first compound 4 µM
  relative viability: 0.478
PC-3 [JPC-3]; first compound 0.04 µM
  relative viability: 0.864
PC-3 [JPC-3]; first compound 0.1265 µM
  relative viability: 0.796
PC-3 [JPC-3]; first compound 0.4 µM
  relative viability: 0.778
PC-3 [JPC-3]; first compound 1.265 µM
  relative viability: 0.509
PC-3 [JPC-3]; first compound 4 µM
  relative viability: 0.561
NCI-H1734; first compound 0.04 µM
  relative viability: 0.492
NCI-H1734; first compound 0.1265 µM
  relative viability: 0.549
NCI-H1734; first compound 0.4 µM
  relative viability: 0.523
NCI-H1734; first compound 1.265 µM
  relative viability: 0.408
NCI-H1734; first compound 4 µM
  relative viability: 0.364
NCI-H1975; first compound 0.04 µM
  relative viability: 0.393
NCI-H1975; first compound 0.1265 µM
  relative viability: 0.282
NCI-H1975; first compound 0.4 µM
  relative viability: 0.331
NCI-H1975; first compound 1.265 µM
  relative viability: 0.261
NCI-H1975; first compound 4 µM
  relative viability: 0.232
HCC-78; first compound 0.04 µM
  relative viability: 0.604
HCC-78; first compound 0.1265 µM
  relative viability: 0.529
HCC-78; first compound 0.4 µM
  relative viability: 0.691
HCC-78; first compound 1.265 µM
  relative viability: 0.563
HCC-78; first compound 4 µM
  relative viability: 0.588
NCI-H647; first compound 0.04 µM
  relative viability: 0.309
NCI-H647; first compound 0.1265 µM
  relative viability: 0.331
NCI-H647; first compound 0.4 µM
  relative viability: 0.344
NCI-H647; first compound 1.265 µM
  relative viability: 0.25
NCI-H647; first compound 4 µM
  relative viability: 0.203
LC-2-ad; first compound 0.04 µM
  relative viability: 0.754
LC-2-ad; first compound 0.1265 µM
  relative viability: 0.621
LC-2-ad; first compound 0.4 µM
  relative viability: 0.708
LC-2-ad; first compound 1.265 µM
  relative viability: 0.574
LC-2-ad; first compound 4 µM
  relative viability: 0.3
SW 1573; first compound 0.04 µM
  relative viability: 0.366
SW 1573; first compound 0.1265 µM
  relative viability: 0.443
SW 1573; first compound 0.4 µM
  relative viability: 0.393
SW 1573; first compound 1.265 µM
  relative viability: 0.216
SW 1573; first compound 4 µM
  relative viability: 0.275
NCI-H2342; first compound 0.04 µM
  relative viability: 0.79
NCI-H2342; first compound 0.1265 µM
  relative viability: 0.636
NCI-H2342; first compound 0.4 µM
  relative viability: 0.737
NCI-H2342; first compound 1.265 µM
  relative viability: 0.76
NCI-H2342; first compound 4 µM
  relative viability: 0.665
NCI-H2347; first compound 0.04 µM
  relative viability: 0.664
NCI-H2347; first compound 0.1265 µM
  relative viability: 0.6
NCI-H2347; first compound 0.4 µM
  relative viability: 0.58
NCI-H2347; first compound 1.265 µM
  relative viability: 0.506
NCI-H2347; first compound 4 µM
  relative viability: 0.437
NCI-H2126; first compound 0.04 µM
  relative viability: 0.591
NCI-H2126; first compound 0.1265 µM
  relative viability: 0.584
NCI-H2126; first compound 0.4 µM
  relative viability: 0.561
NCI-H2126; first compound 1.265 µM
  relative viability: 0.411
NCI-H2126; first compound 4 µM
  relative viability: 0.428
HOP-62; first compound 0.04 µM
  relative viability: 0.238
HOP-62; first compound 0.1265 µM
  relative viability: 0.19
HOP-62; first compound 0.4 µM
  relative viability: 0.201
HOP-62; first compound 1.265 µM
  relative viability: 0.156
HOP-62; first compound 4 µM
  relative viability: 0.128
NCI-H1755; first compound 0.04 µM
  relative viability: 0.744
NCI-H1755; first compound 0.1265 µM
  relative viability: 0.738
NCI-H1755; first compound 0.4 µM
  relative viability: 0.747
NCI-H1755; first compound 1.265 µM
  relative viability: 0.731
NCI-H1755; first compound 4 µM
  relative viability: 0.719
NCI-H1915; first compound 0.04 µM
  relative viability: 0.279
NCI-H1915; first compound 0.4 µM
  relative viability: 0.255
NCI-H1915; first compound 1.265 µM
  relative viability: 0.246
NCI-H1915; first compound 4 µM
  relative viability: 0.248
NCI-H1792; first compound 0.04 µM
  relative viability: 0.477
NCI-H1792; first compound 0.1265 µM
  relative viability: 0.729
NCI-H1792; first compound 0.4 µM
  relative viability: 0.525
NCI-H1792; first compound 1.265 µM
  relative viability: 0.334
NCI-H1792; first compound 4 µM
  relative viability: 0.187
